{"source": "patent US20020081602A1", "about": "“Method for the detection of compounds that modulate the effects of the obese (ob) protein” (SmithKline Beecham p.1.c., priority 1996, published 2002)", "key": {"[1]": {"system": "rat-1 fibroblasts over expressing insulin receptors", "conditions": "Kroder et al. 1996; cited from earlier work"}, "WRL68 cells": {"system": "WRL68 cells", "experiment": "c-fos expression by northern blotting in serum-starved WRL68 cells", "assay_type": "cell-based", "conditions": "treated 5 minutes to 2 hours, normalised to beta-actin", "procedure": "7. Detection of increased c-fos mRNA after treatment with leptin. C-fos mRNA may be detected by Northern, RT-PCR or “slot blot” analysis.\nWRL68 cells were grown to confluence in their standard culture medium in the simultaneous presence of 10% foetal calf serum. At confluence the cells were transferred to serum-free medium for a minimum of 18 hours (lowering the serum concentration may also produce similar results). Serum-starved cells were then treated with leptin or with serum (as positive control for c-fos upregulation) for varying time periods from 5 minutes to 2 hours. RNA was extracted from the cells and subjected to gel electrophoresis and northern blotting. The blotted RNA was then probed with a c-fos labelled probe to analyze the expression of c-fos, the data being normalised by analysing the expression of beta-actin. […] Therefore WRL68 cells is expected to be suitable for identification of leptin mimetics. Other cell lines could also be identified via analysis of c-fos expression in response to leptin."}}}
{"substance": "Leptin: secreted hormone that acts as signal from adipose tissue to other organs to regulate weight and energy balance", "values": [{"measurement": "insulin stimulated phosphorylation of the insulin receptor and insulin receptor substrate-I", "setting": "[1]", "result": "inhibition"}, {"measurement": "c-fos expression", "setting": "WRL68 cells", "result": "significantly enhanced"}]}
